# Assay results taken from patent US7638540B2, “Benzofuran compound and medicinal composition containing the same” (The New Industry Research Organization, priority 2003, dated 2009).
row,melting point,SMILES
1,256.4 to 262.1 °C,"CC(=O)c1oc2ccc(/C(C)=C/C(=O)N3CCOCC3)cc2c1N [Example 23, (E)-3-(2-acetyl-3-aminobenzofuran-5-yl)-1-morpholino-2-buten-1-one]"
2,131.7 to 133.4 °C,"COc1cccc2c(NC(=O)/C(C#N)=C(/C)O)c(C(=O)c3ccc(Br)cc3)oc12 [Example 99, (Z)-N-[2-(4-bromobenzoyl)-7-methoxybenzofuran-3-yl]-2-cyano-3-hydroxy-2-butenamide]"
3,163.3 to 165.2 °C,"CCN(CC)C(=O)/C=C(\C)c1ccc(OC(c2ccccc2)c2ccccc2)c2oc(C(C)=O)cc12 [Example 4, (E)-3-(2-acetyl-7-benzhydryloxybenzofuran-4-yl)-N,N-diethyl-2-butenamide]"
4,155 to 157 °C,"CCN(CC)C(=O)/C=C(\C)c1ccc2oc(C(=O)Nc3cccc(OC)c3)c(N)c2c1 [Example 158, (E)-3-amino-5-(2-diethylcarbamoyl-1-methylvinyl)benzofurane-2-carboxylic acid (3-methoxyphenyl)amide]"
5,210.4 to 212.8 °C,"C/C=C/C(=O)Nc1c(C(=O)c2ccc(Cl)cc2)oc2ccc(Br)cc12 [Example 115, (E)-N-[5-bromo-2-(4-chlorobenzoyl)benzofuran-3-yl]-2-butenamide]"
6,159.5 to 162 °C,"CCOC(=O)c1oc2ccc(/C(C)=C/C(=O)N(CC)CC)cc2c1N [Example 15, Ethyl (E)-3-amino-5-(2-diethylcarbamoyl-1-methylvinyl)benzofurane-2-carboxylate]"
7,112.7 to 114.3 °C,"COc1ccc(CCNC(=O)/C=C(\C)c2ccc3oc(C(C)=O)cc3c2)cc1OC [Example 26, (E)-3-(2-acetylbenzofuran-5-yl)-N-[2-(3,4-dimethoxyphenyl)ethyl]-2-butenamide]"
8,110.5 to 113.5 °C,"CCN(CC)C(=O)/C=C(\C)c1ccc(OCCCSc2ccc(Cl)cc2)c2oc(C(C)=O)cc12 [Example 139, (E)-3-{2-acetyl-7-(3-(4-chlorophenylsulfanyl)propoxy)benzofuran-4-yl}-2-butenoic acid diethylamide]"
9,204 to 206 °C,"CCN(CC)C(=O)/C=C(\C)c1ccc2oc(C(=O)Nc3cccc(OC)c3)c(NC(=O)c3cnoc3C)c2c1 [Example 186, (E)-5-methyl-isoxazole-4-carboxylic acid [5-((E)-2-diethylcarbamoyl-1-methylvinyl)-2-(3-methoxyphenylcarbamoyl)benzofuran-3-yl]amide]"
10,229.4 to 232.5 °C,"C/C(=C\C(=O)N1CCOCC1)c1ccc2oc(C(=O)c3ccc(C#N)cc3)c(NC(=O)c3cnoc3C)c2c1 [Example 81, (E)-N-[2-(4-cyanobenzoyl)-5-(1-methyl-3-morpholino-3-oxo-1-propenyl)benzofuran-3-yl]-5-methylisoxazole-4-carboxamide]"
11,216.4 to 218.4 °C,"CCN(CC)C(=O)/C=C(\C)c1ccc2oc(C(=O)c3ccc(C#N)cc3)c(N)c2c1 [Example 22, (E)-3-[3-amino-2-(4-cyanobenzoyl)benzofuran-5-yl]-N,N-diethyl-2-butenamide]"
12,172 to 174 °C,"CCN(CC)C(=O)/C=C(\C)c1ccc2oc(C(=O)Nc3cccc(OC)c3)c(NC(=O)/C(C#N)=C(/C)O)c2c1 [Example 189, 3-(2-cyano-3-hydroxy-(Z)-2-butenoylamino)-5-((E)-2-diethylcarbamoyl-1-methylvinyl)-benzofurane-2-carboxylic acid(3-methoxyphenyl)amide]"
13,312.2 to 348.6 °C,"COc1cccc2c(NC(=O)CC#N)c(C(=O)c3ccc(Br)cc3)oc12 [Example 198, N-[2-(4-bromobenzoyl)-7-methoxybenzofuran-3-yl]-2-cyanoacetamide]"
14,138.9 to 141.2 °C,"CCOC(=O)c1oc2ccc(/C(C)=C/C(=O)N(CC)CC)cc2c1NC(=O)c1cnoc1C [Example 91, Ethyl (E)-5-(2-diethylcarbamoyl-1-methylvinyl)-3-[(5-methylisoxazole-4-carbonyl)amino]benzofurane-2-carboxylate]"

# More lines, now with the values behind:
row,SMILES,melting point
1,"CCOC(=O)/C=C/C=C(\Cl)c1cc2cc(Br)ccc2o1 [Example 159, Ethyl (2E,4Z)-5-(5-bromobenzofuran-2-yl)-5-chloropenta-2,4-dienoate]",109 to 113 °C
2,"C/C=C/C(=O)Nc1c(C(C)=O)oc2c(OC)cccc12 [Example 185, (E)-2-butenoic acid (2-acetyl-7-methoxybenzofuran-3-yl)amide]",165.7 to 168 °C
3,"COc1cccc(NC(=O)/C=C(\C)c2cc3c(Br)ccc(OCCN(C)C)c3o2)c1 [Example 39, (E)-3-[4-bromo-7-(2-dimethylaminoethoxy)benzofuran-2-yl]-N-(3-methoxyphenyl)-2-butenamide]",176.4 to 181.5 °C
4,"CCCCc1oc2ccccc2c1/C(Cl)=C/C=C/C(=O)Nc1ccc(OC)cc1 [Example 135, (2E,4Z)-5-(2-butylbenzofuran-3-yl)-5-chloropenta-2,4-dienoic acid (4-methoxyphenyl)amide]",91.3 to 93.2 °C
5,"COc1cccc2c(NC(=O)c3cnoc3C)c(C(=O)c3ccc(Cl)cc3)oc12 [Example 82, N-[2-(4-chlorobenzoyl)-7-methoxybenzofuran-3-yl]-5-methylisoxazole-4-carboxamide]",237.4 to 239.5 °C
6,"CC(=O)c1cc2c(/C(C)=C/C(=O)N3CCN(Cc4ccccc4)CC3)ccc(OC(c3ccccc3)c3ccccc3)c2o1 [Example 12, (E)-3-(2-acetyl-7-benzhydryloxybenzofuran-4-yl)-1-(4-benzylpiperazin-1-yl)-2-buten-1-one]",132.1 to 136.5 °C
7,"COc1cccc2c(NC(=O)CCl)c(C(C)=O)oc12 [Example 205, N-(2-acetyl-7-methoxybenzofuran-3-yl)-2-chloroacetamide]",186.2 to 188.3 °C
8,"CC(=O)OC(C)c1oc2ccccc2c1NC(=O)c1cnoc1C (stereo not shown) [Example 76, 1-{3-[(5-methylisoxazole-4-carbonyl)amino]benzofuran-2-yl}ethyl acetate]",130.2 to 132.9 °C
9,"CCNS(=O)(=O)c1ccc(OCCCC(=O)OCC)c2oc(C(C)NC(=O)c3cnoc3C)cc12 (stereo not shown) [Example 125, Ethyl 4-(4-ethylsulfamoyl-2-{1-[(5-methylisoxazole-4-carbonyl)amino]ethyl}benzofuran-7-yloxy)butyrate]",88.1 to 90 °C
10,"COc1ccc(CCNC(=O)/C=C(\C)c2ccc3oc(C(C)=O)c(NC(=O)/C(C#N)=C(/C)O)c3c2)cc1OC [Example 103, N-(2-acetyl-5-{(E)-2-[2-(3,4-dimethoxyphenyl)ethylcarbamoyl]-1-methylvinyl}benzofuran-3-yl)-2-cyano-3-hydroxy-(Z)-2-butenamide]",176.7 to 179.7 °C
11,"COc1cccc2c(NC(C)=O)c(C(C)=O)oc12 [Example 208, N-(2-acetyl-7-methoxybenzofuran-3-yl)acetamide]",206.6 to 209.5 °C
12,"Cc1nc(-c2cc3cc(Br)ccc3o2)cs1 [Example 216, 4-(5-bromobenzofuran-2-yl)-2-methylthiazole]",167.4 to 167.9 °C
13,"C/C(O)=C(\C#N)C(=O)Nc1c(C#N)oc2ccccc12 [Example 105, (Z)-N-(2-cyanobenzofuran-3-yl)-2-cyano-3-hydroxy-2-butenamide]",165.8 to 167.2 °C
14,"C/C=C/C(=O)Nc1c(Cl)oc2c(OC)cccc12 [Example 187, (E)-2-butenoic acid (2-chloro-7-methoxybenzofuran-3-yl)amide]",216 to 217 °C
15,"CC(=O)c1cc2cc(/C(C)=C/C(=O)N3CCOCC3)ccc2o1 [Example 27, (E)-3-(2-acetylbenzofuran-5-yl)-1-morpholino-2-buten-1-one]",138.9 to 141.8 °C
16,"CC(=O)c1cc2cc(/C(C)=C/C(=O)O)ccc2o1 [Example 134, (E)-3-(2-acetylbenzofuran-5-yl)-2-butenoic acid]",220.4 to 223.5 °C
17,"CC(=O)Nc1c(C(=O)/C=C/N(C)C)oc2ccc(Br)cc12 [Example 194, (E)-N-[5-bromo-2-(3-dimethylaminoacryloyl)benzofuran-3-yl]acetamide]",221.1 to 222 °C
18,"C/C(O)=C(/C#N)C(=O)NC(C)c1cc2cccc(OCC(=O)O)c2o1 (stereo not shown) [Example 127, (E)-{2-[1-(2-cyano-3-hydroxy-2-butenoylamino)ethyl]benzofuran-7-yloxy}acetic acid]",169.9 to 173.2 °C
19,"Clc1ccc(-c2c(-c3csc(-c4ccccc4)n3)oc3c(Cl)cccc23)cc1 [Example 213, 4-[7-chloro-3-(4-chlorophenyl)benzofuran-2-yl]-2-phenylthiazole]",165.5 to 166 °C
20,"Cc1oncc1C(=O)Nc1c(C(N)=O)oc2ccccc12 [Example 79, N-(2-carbamoylbenzofuran-3-yl)-5-methylisoxazole-4-carboxamide]",250.7 to 252.6 °C
21,"CCOC(=O)c1oc2ccccc2c1NC(=O)/C(C#N)=C(/C)O [Example 107, Ethyl (Z)-3-(2-cyano-3-hydroxy-2-butenoylamino)benzofurane-2-carboxylate]",147.5 to 150.1 °C
22,"COc1ccc(Br)c2c(NC(C)=O)c(C(C)=O)oc12 [Example 211, N-(2-acetyl-4-bromo-7-methoxybenzofuran-3-yl)acetamide]",235.3 to 237.8 °C
23,"COc1ccc2oc(-c3csc(N)n3)c(-c3ccc(Cl)cc3)c2c1 [Example 218, 4-[3-(4-chlorophenyl)-5-methoxybenzofuran-2-yl]thiazol-2-ylamine]",196 to 197.7 °C
24,"COc1cccc2c(NC(=O)/C(C#N)=C(/C)O)c(C(C)=O)oc12 [Example 102, (Z)-N-(2-acetyl-7-methoxybenzofuran-3-yl)-2-cyano-3-hydroxy-2-butenamide]",207.2 to 208.9 °C
25,"Cc1oncc1C(=O)Nc1c(C#N)oc2ccccc12 [Example 86, N-(2-cyanobenzofuran-3-yl)-5-methylisoxazole-4-carboxamide]",227.3 to 230.4 °C
26,"COc1ccc(NC(=O)/C=C(\C)c2oc3c(Cl)cccc3c2-c2ccc(Cl)cc2)cc1 [Example 143, (E)-3-[7-chloro-3-(4-chlorophenyl)benzofuran-2-yl]-2-butenoic acid (4-methoxyphenyl)-amide]",168.9 to 170 °C
